Among the data in patent publication US8741905B2, “Compounds and methods for treating autoimmune diseases” (The Broad Institute, Inc., priority 2010, dated 2014) are EC50 and IC50 values, retold here.

Assay [1] relates to INS-1E cells. Nature of the assay: Cellular ATP levels (CellTiter-Glo) in cytokine-treated INS-1E cells; suppression of cytokine-induced beta-cell apoptosis. The class given is cell-based, rat. As to the method:
The compounds were analyzed for activity utilizing methods described in Chou et al. (ACS Chem. Biol. 2010 Aug. 20; 5(8):729-34).
INS-1E cells were seeded at 10,000 cells per well using a Multidrop Combi (Thermo Labsystems) in white optical 384-well plates (Corning Life Sciences). After overnight incubation, medium was removed and 50 μL of RPMI containing 1% FBS and a combination of cytokines (10 ng mL-^1 IL-1β, 50 ng mL^−1 IFN-γ, 25 ngmL^−1 TNF-α) was added to every well. Using libraries of compounds dissolved in DMSO and a CyBi-Well pin-transfer robot (CyBio Corp.), 0.1 μL of each compound was added. After 48 h, medium was removed and 20 μL of CellTiter-Glo reagent was added. Luminescence was measured after 10 min of incubation using an EnVision plate reader (PerkinElmer).
Instrument output files were processed using Pipeline Pilot (Accelrys) and input to MATLAB (The MathWorks) for data normalization. Compound performance scores relative to a distribution of mock-treated (DMSO) wells were calculated using a revised version of the scoring system underlying ChemBank. (Seiler et al., Nucleic Acids Res. 36, D351-359, 2008). The role of replicate treatments was further developed as follows: first, mock-treatment distributions were modeled using all mock-treated wells measured on a single day, regardless of their nominal replicate; second, per-compound scores weighted each in-plate background-subtracted measurement by the uncertainty in that measurement, using the method of maximum likelihood. The uncertainty in a single background-subtracted measurement was estimated using the number of mock-treated wells on the plate and, as a measure of the assay noise, the standard deviation of the per-day mock-treatment distribution. The signal, a weighted average of differences, was scaled by the noise, the standard deviation of the mock treatment distribution.
INS-1E cells were seeded at 10,000 cells/well using a Multidrop Combi (Thermo Labsystems) in white optical 384-well plates (Corning Life Sciences). After overnight incubation, medium was removed and 50 μL RPMI containing the treated compound, 1% FBS and a combination of cytokines (10 ng/mL IL-1β, 50 ng/mL IFN-γ, 25 ng/mL TNF-α) was added to every well. After incubation for 48 hr, medium was removed and 20 μL CellTiter-Glo reagent was added. Luminescence was measured after 10-min incubation using an EnVision plate reader (PerkinElmer).
For orientation: In ATP-based viability assays light output follows the ATP content of the culture.

Assay [2] concerns INS-1E cells. Nature of the assay: Caspase-3 activity assay (Caspase-Glo 3/7) in cytokine-treated INS-1E cells. The class given is cell-based, rat. As to conditions: cytokines, 48 h, Caspase-Glo 3/7. As to the method:
INS-1E cells were seeded at 5,000 cells per well in white optical 384-well plates and treated as described for highthroughput screening. After treatment with cytokines and compounds for 48 h, medium was removed and 20 μL Caspase-Glo 3/7 reagent was added. Luminescence was measured after 2 h of incubation using an EnVision plate reader.

The mark [3] stands for this setting: INS-1E cells, cytokines IL-1β, IFN-γ, TNF-α, 48 h, CellTiter-Glo, read-out: CTG EC50 in HTS.
The mark [4] stands for this setting: Rattus norvegicus, INS-1E, assay not named, read-out: EC50.
The mark [5] stands for this setting: Rattus norvegicus, INS-1E cells, cytokines IL-1β, IFN-γ, TNF-α, 48 h, CellTiter-Glo, read-out: CTG EC50 in HTS.

The EC50 is the concentration giving half of the maximal effect. For `COc1ccc(S(=O)(=O)N(C)C[C@@H]2Oc3c(NC(=O)Nc4cc(F)cc5c4OCOC5)cccc3C(=O)N([C@@H](C)CO)C[C@H]2C)cc1` [Compound 48A], the EC50 in assay [1] (setting [3]) and in assay [2] was greater than 25 µM in each case.

In the case of `COc1ccc(S(=O)(=O)N(C)C[C@@H]2Oc3c(NC(=O)Nc4ccc5c(c4)OCCO5)cccc3C(=O)N([C@@H](C)CO)C[C@H]2C)cc1` [Compound 47A], the EC50 in assay [1] (setting [3]) and in assay [2] was greater than 25 µM each time.

In the case of `C[C@@H]1CN([C@@H](C)CO)C(=O)c2cccc(NC(=O)Nc3cccc4ccccc34)c2O[C@H]1CN(C)S(=O)(=O)c1ccc(Cl)cc1` [Compound 5A], the EC50 in assay [1] (setting [3]) was greater than 0.1 µM; in assay [2], greater than 25 µM.

As to `C[C@@H]1CN([C@@H](C)CO)C(=O)c2cccc(NC(=O)Nc3cccc4ccccc34)c2O[C@H]1CN(C)S(=O)(=O)c1cccc(F)c1` [Compound 7A], the EC50 in assay [1] (setting [3]) and in assay [2] was greater than 25 µM each time.

The IC50 is the concentration needed to halve the response being measured. For `COc1ccc(S(=O)(=O)N(C)C[C@@H]2Oc3c(NC(=O)Nc4cccc5ccccc45)cccc3C(=O)N([C@@H](C)CO)C[C@H]2C)cc1` [Compound 1A, N-(((2R,3R)-5-((S)-1-hydroxypropan-2-yl)-3-methyl-10-(3-(naphthalen-1-yl)ureido)-6-oxo-3,4,5,6-tetrahydro-2H-benzo[b][1,5]oxazocin-2-yl)methyl)-4-methoxy-N-methylbenzenesulfonamide], the EC50 in assay [1] (setting [4]) is 0.423 µM; in assay [1] (setting [5]), greater than 0.1 µM; in assay [2] (Rattus norvegicus) it was greater than 0.1 µM. Further, in assay [1] (Rattus norvegicus, INS-1E, read-out: IC50, inhibition of cytokine-induced beta cell apoptosis), the IC50 is 4.9 µM.

Take `COc1cccc(S(=O)(=O)N(C)C[C@@H]2Oc3c(NC(=O)Nc4cccc5ccccc45)cccc3C(=O)N([C@@H](C)CO)C[C@H]2C)c1` [Compound 18A]: the EC50 in assay [1] (setting [3]) and in assay [2] was greater than 25 µM each time.

With `C[C@@H]1CN([C@@H](C)CO)C(=O)c2cccc(NC(=O)Nc3ccc(F)cc3)c2O[C@H]1CN(C)S(=O)(=O)c1ccc(F)cc1` [Compound 38A], the EC50 in assay [1] (setting [3]) and in assay [2] was greater than 25 µM throughout.

Consider `COc1ccc(S(=O)(=O)N(C)C[C@@H]2Oc3c(NC(=O)Nc4cccc(Cl)c4Cl)cccc3C(=O)N([C@@H](C)CO)C[C@H]2C)cc1` [Compound 32A, N-(((2R,3R)-10-(3-(2,3-Dichlorophenyl)ureido)-5-((S)-1-hydroxypropan-2-yl)-3-methyl-6-oxo-3,4,5,6-tetrahydro-2H-benzo[b][1,5]oxazocin-2-yl)methyl)-4-methoxy-N-methylbenzenesulfonamide], for which the EC50 is greater than 20 µM in assay [1] (setting [5]) and greater than 25 µM in assay [2] (Rattus norvegicus).

Take `C[C@@H]1CN([C@@H](C)CO)C(=O)c2cccc(NC(=O)Nc3ccc(F)cc3)c2O[C@H]1CN(C)S(=O)(=O)c1ccc(Cl)cc1` [Compound 30A, 4-Chloro-N-(((2R,3R)-10-(3-(4-fluorophenyl)ureido)-5-((S)-1-hydroxypropan-2-yl)-3-methyl-6-oxo-3,4,5,6-tetrahydro-2H-benzo[b][1,5]oxazocin-2-yl)methyl)-N-methylbenzenesulfonamide]: the EC50 in assay [1] (setting [5]) and in assay [2] (Rattus norvegicus) was greater than 25 µM in each case.

`COc1ccc(S(=O)(=O)N(C)C[C@@H]2Oc3c(NC(=O)Nc4cccc5c4CC(C)(C)O5)cccc3C(=O)N([C@@H](C)CO)C[C@H]2C)cc1` [Compound 46A]: the EC50 in assay [1] (setting [3]) and in assay [2] was greater than 25 µM throughout.

Consider `C[C@@H]1CN([C@@H](C)CO)C(=O)c2cccc(NC(=O)Nc3cccc4ccccc34)c2O[C@H]1CN(C)S(=O)(=O)c1ccc(F)cc1` [Compound 6A], for which the EC50 in assay [1] (setting [3]) and in assay [2] was greater than 25 µM throughout.

For `C[C@@H]1CN([C@@H](C)CO)C(=O)c2cccc(NC(=O)Nc3cccc4ccccc34)c2O[C@H]1CN(C)S(=O)(=O)c1cn(C)cn1` [Compound 36A], the EC50 in assay [1] (setting [3]) and in assay [2] was greater than 25 µM in each case.

Regarding `COc1ccc(S(=O)(=O)N(C)C[C@@H]2Oc3c(NC(=O)Nc4cccc5ccccc45)cccc3C(=O)N([C@@H](C)CO)C[C@H]2C)c(OC)c1` [Compound 19A], the EC50 in assay [1] (setting [3]) and in assay [2] was greater than 25 µM each time.

For the molecule `C[C@@H]1CN([C@@H](C)CO)C(=O)c2cccc(NC(=O)Nc3cccc4ccccc34)c2O[C@H]1CN(C)S(=O)(=O)c1ccc(OC(F)(F)F)cc1` [Compound 16A], the EC50 in assay [1] (setting [3]) was greater than 10 µM; in assay [2] it was greater than 25 µM.

On to `COc1ccc(S(=O)(=O)N(C)C[C@@H]2Oc3c(NC(=O)Nc4cccc5ccccc45)cccc3C(=O)N([C@@H](C)CO)C[C@H]2C)cc1Cl` [Compound 11A], for which the EC50 in assay [1] (setting [3]) was greater than 10 µM; in assay [2], greater than 25 µM.

Regarding `C[C@@H]1CN([C@@H](C)CO)C(=O)c2cccc(NC(=O)Nc3cccc4ccccc34)c2O[C@H]1CN(C)S(=O)(=O)c1ccc2c(n1)N(C)CCO2` [Compound 26A], the EC50 in assay [1] (setting [3]) and in assay [2] was greater than 25 µM each time.

Turning to `Cc1ccc(S(=O)(=O)N(C)C[C@@H]2Oc3c(NC(=O)Nc4ccc(F)cc4)cccc3C(=O)N([C@@H](C)CO)C[C@H]2C)cc1` [Compound 37A], the EC50 in assay [1] (setting [3]) and in assay [2] was greater than 25 µM each time.

With `C[C@@H]1CN([C@@H](C)CO)C(=O)c2cccc(NC(=O)Nc3cccc4ccccc34)c2O[C@H]1CN(C)CS(=O)(=O)c1ccc(F)cc1` [Compound 9A], the EC50 in assay [1] (setting [3]) and in assay [2] was greater than 25 µM in each case.

Consider `COc1ccc(S(=O)(=O)N(C)C[C@@H]2Oc3c(NC(=O)Nc4cccc(-c5ccccc5)c4)cccc3C(=O)N([C@@H](C)CO)C[C@H]2C)cc1` [Compound 40A], for which the EC50 in assay [1] (setting [3]) and in assay [2] was greater than 25 µM each time.

For `C[C@@H]1CN([C@@H](C)CO)C(=O)c2cccc(NC(=O)Nc3cccc4ccccc34)c2O[C@H]1CN(C)S(=O)(=O)c1ccc2c(c1)OCO2` [Compound 23A], the EC50 in assay [1] (setting [3]) and in assay [2] was greater than 25 µM throughout.

With `C[C@@H]1CN([C@@H](C)CO)C(=O)c2cccc(NC(=O)Nc3ccccc3)c2O[C@H]1CN(C)S(=O)(=O)c1ccc(Cl)cc1` [Compound 31A], the EC50 in assay [1] (setting [3]) and in assay [2] was greater than 20 µM in each case.

For `COc1ccc(S(=O)(=O)N(C)C[C@@H]2Oc3c(NC(=O)Nc4ccc5occc5c4)cccc3C(=O)N([C@@H](C)CO)C[C@H]2C)cc1` [Compound 44A], the half-maximal effective concentration (EC50) in assay [1] (setting [3]) and in assay [2] was greater than 25 µM in each case.

With `C[C@@H]1CN([C@@H](C)CO)C(=O)c2cccc(NC(=O)Nc3cccc4ccccc34)c2O[C@H]1CN(C)S(=O)(=O)c1ccc2c(c1)OCC2` [Compound 24A], the half-maximal effective concentration (EC50) in assay [1] (setting [3]) and in assay [2] was greater than 25 µM each time.

As to `COc1ccc(S(=O)(=O)N(C)C[C@@H]2Oc3c(NC(=O)c4cccc5ccccc45)cccc3C(=O)N([C@@H](C)CO)C[C@H]2C)cc1` [Compound 35A], the EC50 in assay [1] (setting [3]) and in assay [2] was greater than 25 µM in each case.

Take `Cc1ccc(S(=O)(=O)N(C)C[C@@H]2Oc3c(NC(=O)Nc4cccc5ccccc45)cccc3C(=O)N([C@@H](C)CO)C[C@H]2C)cc1` [Compound 2A, N-(((2R,3R)-5-((S)-1-hydroxypropan-2-yl)-3-methyl-10-(3-(naphthalen-1-yl)ureido)-6-oxo-3,4,5,6-tetrahydro-2H-benzo[b][1,5]oxazocin-2-yl)methyl)-N,4-dimethylbenzenesulfonamide]: the EC50 in assay [1] (setting [4]) was 5.5 µM; in assay [1] (setting [5]) it was greater than 10 µM; in assay [2] (Rattus norvegicus) it was greater than 25 µM.

Take `Cc1ccc(S(=O)(=O)N(C)C[C@@H]2Oc3c(NC(=O)Nc4ccc(F)cc4)cccc3C(=O)N([C@H](C)CO)C[C@H]2C)cc1` [Compound 37B]: in assay [1] (setting [3]), the 50% effective concentration (EC50) was greater than 25 µM.
